The values that follow come from patent US20060040871A1, “Bacterial transforming agent” (priority 2003, published 2006).

In assay [1] the test system is VRE. The experiment in a line: Antimicrobial plus BTA against VRE (Table 7). Type of assay: cell-based, enterococci.
The test system of assay [2] is MRSA. The experiment in a line: Antimicrobial plus BTA against recent clinical MRSA isolates (Table 7). Type of assay: cell-based, Staphylococcus aureus. The source says:
The four clinical isolates were isolated from patients during the first three months of 2003. […] An intermediate MRSA has been included, as methicillin-resistance has been achieved by means other than production of PBP2a.

Assay [3] concerns MRSA. The experiment in a line: Screening on Isosensitest agar with incorporated BTA and 10 μg methicillin discs. It counts as cell-based, Staphylococcus aureus. Here is the method: To find substances related to GBE that might have increased potency, various substances, including those with additional glycine moieties and benzylates, have been screened. Screening was carried out using Isosensitest agar (Oxoid, UK) into which various levels of potential BTAs were incorporated at levels between 0.01 and 1.0%. The agar with incorporated BTA was then used in the manner of a standard antibiotic sensitivity test using 10 μg methicillin discs. The test organism was inoculated onto the agar surface at a concentration suitable to achieve confluent growth after 18 hours incubation at 30° C. After incubation, zone diameters were compared with that achieved by the control plate (Isosensitest alone) for each test organism.

The test system of assay [4] is vancomycin-resistant enterococci (VRE). The experiment in a line: Activity of BTAs against vancomycin-resistant enterococci. Type of assay: cell-based.
The test system of assay [5] is E. faecium. The following applies: cited from earlier work.

For `Nc1ccc(C(=O)NCC(=O)O)cc1` [Amino-HA, P-Amino Hippuric acid], the Vancomycin (antimicrobial plus BTA; quantity not named, MIC implied) was 64 µg/mL in assay [1] (+BTA 0.1%); 0.25 µg/mL in assay [2] (EMRSA-16, +BTA 0.1%); 0.25 µg/mL in assay [2] (EMRSA-17, +BTA 0.1%); less than 0.25 µg/mL in assay [2] (I-MRSA, +BTA 0.1%). The Cephalexin (antimicrobial plus BTA; quantity not named, MIC implied) in assay [2] (EMRSA-16, +BTA 0.01%) was 3 µg/mL; in assay [2] (EMRSA-16, +BTA 0.1%), 1 µg/mL; in assay [2] (EMRSA-17, +BTA 0.01%) it was 6 µg/mL; in assay [2] (EMRSA-17, +BTA 0.1%), 4 µg/mL; in assay [2] (I-MRSA, +BTA 0.01%), 1.5 µg/mL; in assay [2] (I-MRSA, +BTA 0.1%), 0.064 µg/mL. The Oxacillin (antimicrobial plus BTA; quantity not named, MIC implied) in assay [2] (EMRSA-16, +BTA 0.01%) is 3 µg/mL; in assay [2] (EMRSA-16, +BTA 0.1%), 0.75 µg/mL; in assay [2] (EMRSA-17, +BTA 0.01%), 6 µg/mL; in assay [2] (EMRSA-17, +BTA 0.1%), 1 µg/mL; in assay [2] (I-MRSA, +BTA 0.01%), 1.5 µg/mL; in assay [2] (I-MRSA, +BTA 0.1%) it was 0.064 µg/mL. Also, the “activity relative to Hippuric acid and GBE” value in assay [3] is on record as “improved activity”.
In the case of `CCOC(=O)CNC(=O)CN` [GGEE, Glycylglycine ethyl ester], the Vancomycin (antimicrobial plus BTA; quantity not named, MIC implied) is 64 µg/mL in assay [1] (+BTA 1.0%); 0.25 µg/mL in assay [2] (EMRSA-16, +BTA 1.0%); 0.25 µg/mL in assay [2] (EMRSA-17, +BTA 1.0%); less than 0.25 µg/mL in assay [2] (I-MRSA, +BTA 1.0%). Further, the Oxacillin (antimicrobial plus BTA; quantity not named, MIC implied) in assay [2] (EMRSA-16, +BTA 0.01%) was 1.5 µg/mL; in assay [2] (EMRSA-16, +BTA 0.1%), 1 µg/mL; in assay [2] (EMRSA-16, +BTA 1.0%) it was 0.75 µg/mL; in assay [2] (EMRSA-17, +BTA 0.01%) it was 3 µg/mL; in assay [2] (EMRSA-17, +BTA 0.1%) it was 2 µg/mL; in assay [2] (EMRSA-17, +BTA 1.0%) it was 1 µg/mL. The Oxacillin (antimicrobial plus BTA; quantity not named, MIC implied) in assay [2] (I-MRSA, +BTA 0.01%) stood at 1 µg/mL; in assay [2] (I-MRSA, +BTA 0.1%) it was 0.75 µg/mL; in assay [2] (I-MRSA, +BTA 1.0%) it was 0.32 µg/mL. The Cephalexin (antimicrobial plus BTA; quantity not named, MIC implied) came to 1.5 µg/mL in assay [2] (EMRSA-16, +BTA 0.1%); 0.75 µg/mL in assay [2] (EMRSA-16, +BTA 1.0%); 2 µg/mL in assay [2] (EMRSA-17, +BTA 0.1%); 1 µg/mL in assay [2] (EMRSA-17, +BTA 1.0%); 0.75 µg/mL in assay [2] (I-MRSA, +BTA 0.1%); 0.38 µg/mL in assay [2] (I-MRSA, +BTA 1.0%). Besides, the “activity against VRE and MRSA relative to glycylglycine benzyl ester” value in assay [3] (VRE and MRSA) is “greater activity”.
Regarding `C#CCC(N)C(=O)O.C#CCC(N)C(=O)O` (stereo not shown) [PPG, Propargylglycine (2-Amino-4-pentynoic acid)], the Vancomycin (antimicrobial plus BTA; quantity not named, MIC implied) in assay [1] (+BTA 0.01%) is 64 µg/mL; in assay [2] (EMRSA-16, +BTA 0.01%), 0.25 µg/mL; in assay [2] (EMRSA-17, +BTA 0.01%), 0.25 µg/mL; in assay [2] (I-MRSA, +BTA 0.01%) it was less than 0.25 µg/mL. For the same compound, the Oxacillin (antimicrobial plus BTA; quantity not named, MIC implied) turned out to be 4 µg/mL in assay [2] (EMRSA-16, +BTA 0.001%); 1.5 µg/mL in assay [2] (EMRSA-16, +BTA 0.01%); 8 µg/mL in assay [2] (EMRSA-17, +BTA 0.001%); 2 µg/mL in assay [2] (EMRSA-17, +BTA 0.01%); 2 µg/mL in assay [2] (I-MRSA, +BTA 0.001%); 0.125 µg/mL in assay [2] (I-MRSA, +BTA 0.01%). Further, the Cephalexin (antimicrobial plus BTA; quantity not named, MIC implied) in assay [2] (EMRSA-16, +BTA 0.01%) was determined as 12 µg/mL; in assay [2] (EMRSA-17, +BTA 0.01%) it was 6 µg/mL; in assay [2] (I-MRSA, +BTA 0.01%), 0.125 µg/mL.
For the compound N-carbamoylglycine (Hydantoic acid), the “activity against vancomycin-resistant enterococci (VRE)” value in assay [4] was “low-level active”.
Regarding quinupristin/dalfopristin, the “E. faecium isolates against which active (MIC≦2 mg/L)” value in assay [5] is listed as 86%.
